Reference: ChEMBL document CHEMBL1121833, “Structure--sweetness relationship of L-aspartyl dipeptide analogues. A receptor site topology” (J Med Chem, 1981)
Peptide text beside a SMILES is read from it.

Tests used:
Assay type in all cases: functional
[1] = Sweet potency as logarithm of sweet potency (log SP) relative to sucrose; Sweet
[2] = Sweet potency as logarithm of sweet potency (log SP) relative to sucrose; No sweet
[3] = Sweet potency as logarithm of sweet potency (log SP) relative to sucrose; Bitter
[4] = Sweet potency as logarithm of sweet potency (log SP) relative to sucrose
[5] = Sweet potency as logarithm of sweet potency (log SP) relative to sucrose; Tasteless

Row | SMILES | Log SP [4] | also measured
1 | N[C@H](CC(=O)O)C(=O)NCCOc1ccccc1 |  | Log SP [1]: Sweet
2 | CC[C@@H](CC(=O)OC(C)C)NC(=O)[C@H](N)CC(=O)O |  | Log SP [2]: Not sweet
3 | COC(=O)C(CNC(=O)[C@H](N)CC(=O)O)C(=O)OC |  | Log SP [2]: Not sweet
4 | CC[C@@H](CC(=O)OC1CCCCC1)NC(=O)[C@H](N)CC(=O)O |  | Log SP [2]: Not sweet
5 | CC(C)C[C@H](C)NC(=O)[C@H](N)CC(=O)O |  | Log SP [3]: Bitter
6 | CCC(C)[C@@H](COC(C)=O)NC(=O)[C@H](N)CC(=O)O (stereo partly drawn) |  | Log SP [2]: Not sweet
7 | COC(=O)C(CNC(=O)[C@H](N)CC(=O)O)C(=O)OC1CCCC1 (stereo partly drawn) |  | Log SP [2]: Not sweet
8 | CCCCCCNC(=O)[C@H](N)CC(=O)O |  | Log SP [1]: Sweet
9 | C[C@@H](Cc1ccc(O)cc1)NC(=O)[C@H](N)CC(=O)O |  | Log SP [1]: Sweet
10 | C[C@H](Cc1ccccc1)N(C)C(=O)[C@H](N)CC(=O)O |  | Log SP [3]: Bitter
11 | CC[C@H](C)[C@H](NC(=O)[C@@H](N)CC(=O)O)C(=O)OC (H-Asp-Ile-OMe) |  | Log SP [2]: Not sweet
12 | C[C@@H](COC(=O)C1CCCC(C)(C)C1)NC(=O)[C@H](N)CC(=O)O (stereo partly drawn) |  | Log SP [2]: Not sweet
13 | CC(=O)OC[C@H](CC(C)C)NC(=O)[C@H](N)CC(=O)O |  | Log SP [2]: Not sweet
14 | C[C@@H](COC(=O)C1CCCCC1)NC(=O)[C@H](N)CC(=O)O |  | Log SP [2]: Not sweet
15 | CCCCC(=O)OC[C@H](CC)NC(=O)[C@H](N)CC(=O)O |  | Log SP [2]: Not sweet
16 | COC(=O)[C@@H](CC(=O)OC1CCCCC1)NC(=O)[C@H](N)CC(=O)O |  | Log SP [2]: Not sweet
17 | N[C@H](CC(=O)O)C(=O)NCCc1ccc(O)cc1 |  | Log SP [1]: Sweet
18 | C[C@@H](Cc1ccc(NS(C)(=O)=O)cc1)NC(=O)[C@H](N)CC(=O)O |  | Log SP [3]: Bitter
19 | C[C@@H](Cc1cc2ccccc2[nH]1)NC(=O)[C@H](N)CC(=O)O |  | Log SP [3]: Bitter
20 | C[C@@H](Cc1ccc2c(c1)OCO2)NC(=O)[C@H](N)CC(=O)O |  | Log SP [3]: Bitter
21 | CCC[C@H](CC)NC(=O)[C@H](N)CC(=O)O |  | Log SP [3]: Bitter
22 | N[C@H](CC(=O)O)C(=O)N[C@@H](CO)Cc1ccccc1 |  | Log SP [1]: Sweet
23 | CCCCCCCNC(=O)[C@H](N)CC(=O)O |  | Log SP [1]: Sweet
24 | CC(CNC(=O)[C@H](N)CC(=O)O)c1ccccc1 (stereo partly drawn) |  | Log SP [3]: Bitter
25 | CCCC[C@H](CC)NC(=O)[C@H](N)CC(=O)O |  | Log SP [1]: Sweet
26 | C[C@H](CC1CCCCC1)N(C)C(=O)[C@H](N)CC(=O)O |  | Log SP [3]: Bitter

Row | SMILES | Log SP [4] | also measured
27 | CC1CCCCC1OC(=O)CCNC(=O)[C@H](N)CC(=O)O (stereo partly drawn) |  | Log SP [2]: Not sweet
28 | C[C@H](NC(=O)[C@H](N)CC(=O)O)C(O)c1ccccc1 (stereo partly drawn) |  | Log SP [1]: Sweet
29 | COC(=O)[C@@H](COC(=O)c1ccccc1)NC(=O)[C@H](N)CC(=O)O |  | Log SP [2]: Not sweet
30 | N[C@H](CC(=O)O)C(=O)NCCc1ccco1 |  | Log SP [1]: Sweet
31 | COC(=O)[C@@H](CCCCN)NC(=O)[C@H](N)CC(=O)O |  | Log SP [3]: Bitter
32 | CC(C)C[C@H](NC(=O)[C@H](N)CC(=O)O)C(=O)OC(C)C |  | Log SP [2]: Not sweet
33 | CCC[C@@H](COC(=O)CC)NC(=O)[C@H](N)CC(=O)O |  | Log SP [2]: Not sweet
34 | C[C@@H](CC1CCCCC1)N(C)C(=O)[C@H](N)CC(=O)O |  | Log SP [3]: Bitter
35 | COC(=O)C(CNC(=O)[C@H](N)CC(=O)O)C(=O)OC1CCCCC1 (stereo partly drawn) |  | Log SP [2]: Not sweet
36 | N[C@H](CC(=O)O)C(=O)N[C@@H](CO)C(=O)OC1CCCCC1 | 1.72 | 
37 | CCCOC(=O)[C@H](CO)NC(=O)[C@H](N)CC(=O)O | 2.39 | 
38 | COC[C@@H](COC(C)=O)NC(=O)[C@H](N)CC(=O)O | 0.48 | 
39 | CC(=O)OC[C@H](C)NC(=O)[C@H](N)CC(=O)O | 1.61 | 
40 | CC(=O)OC[C@@H](NC(=O)[C@H](N)CC(=O)O)C(C)C | 1.58 | 
41 | COC(=O)C(NC(=O)[C@@H](N)CC(=O)O)C(=O)OCC1C2(C)CCC(C2)C1(C)C (stereo partly drawn) | 4.79 | 
42 | CCC(C)OC(=O)CCNC(=O)[C@H](N)CC(=O)O (stereo partly drawn) | 0.73 | 
43 | CCOC(=O)[C@H](NC(=O)[C@H](N)CC(=O)O)C(=O)OC(C)(C)C | 2.32 | Log SP [1]: Sweet
44 | COC(=O)[C@@H](CC(C)C)NC(=O)[C@H](N)CC(=O)O |  | Log SP [2]: Not sweet
45 | CC(C)C(=O)OC[C@@H](NC(=O)[C@H](N)CC(=O)O)C(C)C | 1.1 | 
46 | COC(=O)C(NC(=O)[C@@H](N)CC(=O)O)C(=O)OC1CCCCC1C (stereo in doubt; 203) | 4.11 | 
47 | CCOC(=O)[C@H](C)NC(=O)[C@H](N)CC(=O)O | 1.75 | 
48 | CCCCC[C@H](C)NC(=O)[C@H](N)CC(=O)O (stereo in doubt; 12) | 1.56 | 
49 | CCOC(=O)[C@H](CO)NC(=O)[C@H](N)CC(=O)O | 1.92 | 
50 | CC(C)C(=O)OCCNC(=O)[C@H](N)CC(=O)O | 1.16 | 
51 | COC(=O)CCNC(=O)[C@H](N)CC(=O)O | 0.11 | 
52 | N[C@H](CC(=O)O)C(=O)N[C@@H](CO)Cc1ccc(O)cc1 |  | Log SP [1]: Sweet

Row | SMILES | Log SP [4] | also measured
53 | CCC(CC)C(=O)OC[C@H](C)NC(=O)[C@H](N)CC(=O)O | 1.53 | 
54 | C[C@@H](CCc1ccccc1)NC(=O)[C@H](N)CC(=O)O | 0.89 | 
55 | COC(=O)C(CNC(=O)[C@H](N)CC(=O)O)Cc1ccccc1 (stereo partly drawn) |  | Log SP [2]: Not sweet
56 | CCCC(O)[C@H](NC(=O)[C@H](N)CC(=O)O)C(=O)OC (stereo in doubt; 56) | 1.16 | 
57 | COC(=O)[C@H](NC(=O)[C@@H](N)CC(=O)O)[C@@H](C)O | 0.71 | 
58 | CC[C@@H](Cc1ccccc1)NC(=O)[C@H](N)CC(=O)O | 0.89 | 
59 | CCC[C@H](C)NC(=O)[C@H](N)CC(=O)O |  | Log SP [5]: Tasteless
60 | CCCSC[C@@H](NC(=O)[C@H](N)CC(=O)O)C(=O)OC | 2.11 | 
61 | COC(=O)[C@@H](Cc1ccc(O)cc1)NC(=O)[C@H](N)CC(=O)O | 2.15 | 
62 | CCCC[C@@H](NC(=O)[C@H](N)CC(=O)O)C(=O)OC | 1.49 | 
63 | COC(=O)C(C)C[C@H](NC(=O)[C@@H](N)CC(=O)O)C(=O)OC (stereo partly drawn) | 1.15 | 
64 | C[C@@H](Cc1ccccc1)N(C)C(=O)[C@H](N)CC(=O)O |  | Log SP [3]: Bitter
65 | CCOC(=O)C(NC(=O)[C@@H](N)CC(=O)O)C(=O)OC1CCCCC1C (stereo partly drawn) | 3.09 | 
66 | COC(=O)[C@H](NC(=O)[C@@H](N)CC(=O)O)[C@H](C)O | 1.26 | 
67 | C[C@@H](COC(=O)c1ccccc1)NC(=O)[C@H](N)CC(=O)O |  | Log SP [2]: Not sweet
68 | COC(=O)[C@H](NC(=O)[C@H](N)CC(=O)O)C(=O)OC1CCCCC1 | 3.14 | 
69 | CCOC(=O)C[C@H](Cc1ccccc1)NC(=O)[C@H](N)CC(=O)O |  | Log SP [2]: Not sweet
70 | CC(C)CC(=O)OC[C@H](C)NC(=O)[C@H](N)CC(=O)O | 2.08 | 
71 | C[C@@H](COc1ccccc1)NC(=O)[C@H](N)CC(=O)O | 1.19 | 
72 | CC(C)CCCNC(=O)[C@H](N)CC(=O)O |  | Log SP [5]: Tasteless
73 | CCCCOC(=O)[C@H](NC(=O)[C@@H](N)CC(=O)O)[C@H](C)O | 1.23 | 
74 | C[C@@H](CC(=O)OC1CCCCC1)NC(=O)[C@H](N)CC(=O)O | 0.64 | 
75 | CCOC(=O)C(NC(=O)[C@@H](N)CC(=O)O)C(=O)OCC1C2(C)CCC(C2)C1(C)C (stereo partly drawn) | 4.05 | 
76 | CC[C@@H](COC(=O)C1CCC1)NC(=O)[C@H](N)CC(=O)O | 1.4 | 
77 | C=CC(=O)OC[C@H](C)NC(=O)[C@H](N)CC(=O)O | 1.85 | 
78 | C[C@@H](COC(=O)C1CC1)NC(=O)[C@H](N)CC(=O)O | 2.18 | 

Row | SMILES | Log SP [4] | also measured
79 | CCC(=O)OC[C@H](CO)NC(=O)[C@H](N)CC(=O)O | 1.99 | 
80 | CCC(C)C[C@H](C)NC(=O)[C@H](N)CC(=O)O (stereo partly drawn) |  | Log SP [1]: Sweet
81 | CC(=O)OC[C@H](Cc1ccccc1)NC(=O)[C@H](N)CC(=O)O |  | Log SP [2]: Not sweet
82 | CCCCOC(=O)CCNC(=O)[C@H](N)CC(=O)O |  | Log SP [2]: Not sweet
83 | CCC(=O)OC[C@H](C)NC(=O)[C@H](N)CC(=O)O | 1.86 | 
84 | CCC(C)C(=O)OC[C@H](CO)NC(=O)[C@H](N)CC(=O)O (stereo partly drawn) | 1.21 | 
85 | CCCOC(=O)[C@H](NC(=O)[C@@H](N)CC(=O)O)[C@H](C)O | 1.51 | 
86 | N[C@H](CC(=O)O)C(=O)NCCc1ccccc1 |  | Log SP [5]: Tasteless
87 | COC(=O)C(NC(=O)[C@@H](N)CC(=O)O)C(=O)OC1C(C)CCCC1C (stereo partly drawn) | 4.02 | 
88 | CCCCCCC(C)NC(=O)[C@H](N)CC(=O)O (stereo partly drawn) | 1.17 | 
89 | CCCC(=O)OC[C@H](CO)NC(=O)[C@H](N)CC(=O)O | 0.58 | 
90 | C[C@@H](CC1CCCCC1)NC(=O)[C@H](N)CC(=O)O | 1.57 | 
91 | CC[C@@H](COC(=O)C(C)C)NC(=O)[C@H](N)CC(=O)O | 1.38 | 
92 | COC(=O)C(NC(=O)[C@@H](N)CC(=O)O)C(=O)OC1CC(C)CCC1C(C)C (stereo partly drawn) |  | Log SP [2]: Not sweet
93 | CC(C)CCC(C)NC(=O)[C@H](N)CC(=O)O (stereo partly drawn) | 1.54 | 
94 | COC(=O)CNC(=O)[C@H](N)CC(=O)O | 0.68 | 
95 | CCSC[C@@H](NC(=O)[C@H](N)CC(=O)O)C(=O)OC | 1.6 | 
96 | CC[C@@H](COC(=O)C1CCCCC1)NC(=O)[C@H](N)CC(=O)O |  | Log SP [2]: Not sweet
97 | CCOCC[C@H](C)NC(=O)[C@H](N)CC(=O)O | 1.14 | 
98 | CC(C)COC(=O)[C@H](NC(=O)[C@@H](N)CC(=O)O)[C@H](C)O | 1.36 | 
99 | COC(=O)[C@H](CO)NC(=O)[C@H](N)CC(=O)O | 1.49 | 
100 | N[C@H](CC(=O)O)C(=O)N[C@@H](CO)COC(=O)C1CCC1 | 1.71 | 
101 | COC(=O)[C@H](C)NC(=O)[C@H](N)CC(=O)O | 1.2 | 
102 | N[C@H](CC(=O)O)C(=O)NCCOC(=O)C1CC1 | 1.03 | 
